In general, IC50 refers to the concentration at which inhibition is half-maximal.

Molecules are shown by their SMILES.

One test deals with T1, B-Raf (V600E) kinase (Homo sapiens, UniProt P15056, V600E).
T1 construct: B-Raf (V600E) residues 416-766 with a; GST (N); purchased SignalChem
The test can be described thus: Biochemical assay for B-Raf (V600E).1 (coupled pyruvate kinase/lactate dehydrogenase). The following applies: read-out: BRAF V600E.1 IC50. The gist of the method:
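IC50 came from four-parameter sigmoidal fits of percent inhibition, using reaction rates over 3-4 h. Continuous A340 reading (6 h, 30 °C) of a pyruvate kinase/lactate dehydrogenase-coupled reaction: B-Raf V600E 0.03 nM, MEK 30.1 nM, ATP 1 mM, Tris pH 7.5, 1% DMSO.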

The next test deals with A375 cells. The test can be described thus: A375 cell proliferation assay (1), resazurin, 96-well. The format is cell-based. As to conditions: Homo sapiens, A-375, inhibition of cell proliferation. In short, it runs like this: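 Viability was read by resazurin fluorescence at 540 nm excitation and 600 nm emission, using a 440 μM solution added for 5–6 h at the end of culture. IC50 came from the curve fit.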

The next test relates to H2405 cells. The test can be described thus: H2405 cell proliferation assay (1), resazurin, 96-well. The format is cell-based. As to conditions: Homo sapiens, NCI-H2405, inhibition of cell proliferation. In short, it runs like this:
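This is a resazurin viability readout (excitation 540 nm, emission 600 nm) taken 5-6 h after adding 440 μM resazurin solution, giving IC50 values.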
(Alamar Blue is a resazurin reagent that responds to reducing activity.)

The next test has as its target T2, A-Raf kinase (Homo sapiens, UniProt P10398, Y301D/Y302D).
T2 construct: purchased Sigma
The test can be described thus: Biochemical assay for A-Raf.1 (coupled pyruvate kinase/lactate dehydrogenase). The following applies: read-out: ARAF.1 IC50. The gist of the method: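 IC50 values came from four-parameter sigmoidal fits of percent inhibition, using rates over the 4 to 5 h window of continuous A340 readings (6 h, 30° C). The coupled PK/LDH system tracked NADH oxidation during 5.55 nM A-Raf activity on 30.1 nM MEK at 1 mM ATP, buffer pH 7.5.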

T1 sequence (P15056 416-766 V600E): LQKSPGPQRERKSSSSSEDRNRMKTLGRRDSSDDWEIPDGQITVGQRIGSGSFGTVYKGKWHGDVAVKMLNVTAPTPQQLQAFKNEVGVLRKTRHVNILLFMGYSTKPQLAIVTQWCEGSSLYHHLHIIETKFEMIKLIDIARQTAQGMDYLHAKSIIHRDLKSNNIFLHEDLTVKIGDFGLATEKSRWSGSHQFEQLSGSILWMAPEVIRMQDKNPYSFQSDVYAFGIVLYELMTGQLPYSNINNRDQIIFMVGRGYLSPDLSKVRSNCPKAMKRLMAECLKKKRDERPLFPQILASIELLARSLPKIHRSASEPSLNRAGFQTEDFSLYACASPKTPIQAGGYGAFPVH
T2 sequence (P10398 with tags, fused parts or gaps Y301D/Y302D): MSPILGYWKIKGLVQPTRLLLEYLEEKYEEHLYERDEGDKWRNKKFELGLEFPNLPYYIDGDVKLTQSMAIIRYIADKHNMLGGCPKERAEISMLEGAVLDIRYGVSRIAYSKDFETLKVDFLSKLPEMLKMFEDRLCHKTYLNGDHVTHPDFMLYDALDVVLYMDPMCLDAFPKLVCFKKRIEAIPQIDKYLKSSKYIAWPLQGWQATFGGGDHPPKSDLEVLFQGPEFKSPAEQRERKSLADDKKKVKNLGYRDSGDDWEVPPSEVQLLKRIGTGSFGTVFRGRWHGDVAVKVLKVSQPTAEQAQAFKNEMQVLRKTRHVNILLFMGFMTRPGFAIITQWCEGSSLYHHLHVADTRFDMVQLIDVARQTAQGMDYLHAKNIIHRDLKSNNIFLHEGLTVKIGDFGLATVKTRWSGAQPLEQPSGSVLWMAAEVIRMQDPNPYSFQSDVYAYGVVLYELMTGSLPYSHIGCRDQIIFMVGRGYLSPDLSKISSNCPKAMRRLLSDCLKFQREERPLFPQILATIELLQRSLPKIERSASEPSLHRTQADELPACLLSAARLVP

`Cc1ncc(NC(=O)NC2CC(C)(C)C2)cc1-c1cc(OCCO)nc(-c2ccnc(NC(=O)C3CC3)c2)n1` [Example 144]: the half-maximal inhibitory concentration (IC50) at B-Raf (V600E) kinase was at most 100 nM; in the test with A375 cells it was 500 to 1000 nM; with H2405 cells, 100 to 500 nM; at A-Raf kinase it was above 1000 nM.

Take `Cc1ccc(NC(=O)NCCC(C)(C)C)cc1-c1cc(N2CCOCC2)nc(N2CCOCC2)c1` [Example 4]: the IC50 at B-Raf (V600E) kinase was at most 100 nM; in the test with A375 cells, 500 to 1000 nM; with H2405 cells, 100 to 500 nM; at A-Raf kinase, above 1000 nM.

As for `Cc1ncc(NC(=O)NCCC2(C)CC2)cc1-c1ccnc(-c2ccnc(NC(=O)C3CC3)c2)n1` [Example 107], the IC50 at B-Raf (V600E) kinase is at most 100 nM; in the test on A375 cells, 1000 to 10000 nM; in the test on H2405 cells it was 100 to 500 nM; on A-Raf kinase, 500 to 1000 nM.

Consider `COC(=O)Nc1cc(-c2cc(-c3cc(NC(=O)NCCC4(OC)CC4)c(F)cc3C)ccn2)ccn1` [Example 145], for which the concentration for half-maximal inhibition (IC50) at B-Raf (V600E) kinase is at most 100 nM; in the test on A375 cells it was 1000 to 10000 nM; in the test with H2405 cells, 500 to 1000 nM; on A-Raf kinase it was above 1000 nM.

With `CNC(=O)c1cc(-c2cnnc(-c3cc(NC(=O)NCCC(C)(C)OC)c(F)cc3C)c2)ccn1` [Example 123], the half-maximal inhibitory concentration (IC50) was at most 100 nM on B-Raf (V600E) kinase, 1000 to 10000 nM in the test with A375 cells, 1000 to 10000 nM with H2405 cells and above 1000 nM on A-Raf kinase.

For `CCC(C)CCNC(=O)Nc1cnc(C)c(-c2ccnc(-c3ccnc(NC(=O)C4CC4)c3)c2)c1` (centres unmarked) [Example 124], the IC50 at B-Raf (V600E) kinase is at most 100 nM; in the test on A375 cells it was 1000 to 10000 nM; with H2405 cells, 1000 to 10000 nM; at A-Raf kinase it was above 1000 nM.

For the compound `COC(=O)Nc1cc(-c2cccc(-c3cc(NC(=O)NCCC4(OC)CC4)cnc3C)c2)ncn1` [Example 138], the half-maximal inhibitory concentration (IC50) is at most 100 nM on B-Raf (V600E) kinase, 1000 to 10000 nM in the test with A375 cells, 1000 to 10000 nM in the test on H2405 cells and above 1000 nM at A-Raf kinase.

For `COC(=O)Nc1cc(-c2nccc(-c3cc(NC(=O)NCCC(C)(C)F)c(F)cc3C)n2)ccn1` [Example 147], the IC50 at B-Raf (V600E) kinase was at most 100 nM; in the test on A375 cells, 1000 to 10000 nM; in the test with H2405 cells it was 1000 to 10000 nM; on A-Raf kinase, above 1000 nM.

These data come from patent US20230357179A1, “RAF KINASE INHIBITORS AND METHODS OF USE THEREOF” (Deciphera Pharmaceuticals, LLC, priority 2021, published 2023).
